Patent US12383628B2 (priority 2016, dated 2025)
Entries after “also recorded” stand apart in the source; their conditions may differ. Square brackets hold non-standard residues; d marks the D form. Ends that are not written are not given here. Peptide text beside a SMILES is read from it. Phe(3-Br) = N[C@@H](Cc1cccc(Br)c1)C(=O)O; Dmt = Cc1cc(O)cc(C)c1C[C@H](N)C(=O)O; β3hF = N[C@H](CC(=O)O)Cc1ccccc1

How the values were obtained:
human plasma = settings: 37° C.; for fragment found / cleaved bond: up to 60 min
[1] = TEM / cryo-TEM fibre morphology of hydrogels; format: physicochemical; settings: cryoTEM and negative staining, Example 9
Protocol: Formvar carbon-coated 400-mesh copper grids (Agar Scientific, Stansted, United Kingdom) were treated with plasma using an ELMO Glow discharge system to clean the grid surface and to render the carbon surface hydrophilic. Hydrogel samples were prepared 12 h in advance as described above. Small aliquots of sample (5 μL) were pipetted onto the carbon grids for adsorption. After 30 s, excess of sample was removed by using a Whatman 541 filter paper. The loaded grids were stained during 10 s with 1% uranyl formate after which the grids were air-dried. Samples were analysed using a JEOL JEM-1400 transmission electron microscope, operating at accelerating voltage of 120 kV. Images were recorded on a CMOS TemCam-F416 camera and accessory software of TVIPS.
200-mesh copper grids coated with perforated carbon film (Lacey carbon film: ProSci-Tech Old, Australia) were used and were glow discharged in nitrogen for 5 s immediately prior to use. Hydrogel samples were prepared 12 h in advance as described above. Small aliquots of sample (4 μL) were pipetted onto the carbon grids for adsorption. After 30 s, excess of sample was removed by using a Whatman 541 filter paper. The grid was then plunged into liquid ethane cooled by liquid nitrogen. Frozen grids were stored in liquid nitrogen until required. Samples were analysed using a Gatan 626 cryoholder and Tecnai 12 Transmission electron microscope, operating at accelerating voltage of 120 kV. Images were recorded using an FEI Eagle 4k×4k CCD camera.

in vitro = settings: human, plasma
Protocol: Human plasma was obtained from the Belgian Red Cross (Vlaams-Brabant, Leuven). Prior to the stability test, selectivity, stability of the compound in the injection solvent, linearity, accuracy and precision of the method were investigated. Frozen (−20° C.) human plasma samples were thawed and thermostated to 37±2° C. Dissolution of the lyophilized peptide and consecutive dilutions were performed in water. The resulting aqueous solutions of each peptide individually was spiked in human plasma (10:90 v/v) with final plasma concentrations of 9 μM.
On every time point 100 μL spiked plasma was transferred to a 500 μL Eppendorf tube and a protein crash was performed using the corresponding precipitation solvent (4° C.). Suspensions were vortexed for 15 s and placed at 4° C. for 30 to 45 min. After centrifugation at 18 625 g for 20 min, 100 μL supernatant was diluted with 100 μL water in the injection vial.
Injection samples were vortexed for 5 sand placed in the autosampler. […] Concentrations were calculated by use of the calibration curve and transferred to a semi-log chart presenting the log concentrations as a function of time. The optimum curve was used to calculate the peptide half-life. Calculations were performed using Microsoft® Office Professional 2010 Excel.

L929 mouse fibroblasts = assay: Cytotoxicity, Live/Dead viability staining on hydrogels (Example 9); format: cell-based
Protocol: Hydrogels were prepared at 1, 2 or 3 mg/100 μL as duplicate in a 96-well ULA plate (Cat #CORN3474; Corning-Costar, 60 μL each well). The gels were photographed and pre-equilibrated before seeding with cells. For equilibration, gels were incubated at room temperature in 40 μL of L929 culture medium with double-strength Anti-Anti (Cat #15240062, GIBCO) for 2 h prior to seeding with cells. The equilibration medium was removed before cell seeding and retained to examine if the gels dissolved (even partially) or disintegrated into the culture medium. Next, […] mouse fibroblasts (ATCC) were seeded onto hydrogels at a concentration of 200,000 cells/ml in a volume of 50 μl. The cells were photographed immediately after seeding, observed by microscopy 2 h post-seeding and then observed and photographed at 24 h post-seeding. The cell culture medium consisted of MEM+GlutaMAX I (Cat #41090-036; GIBCO); 10% foetal bovine serum (Cat #12003C; SAFC, Sigma), 2× Anti-Anti (Cat #[…]) and 1× Non-Essential Amino Acids (Cat #41090-036; GIBCO).
Bright field microscopy was performed through use of a IX71 inverted microscope with NIS-Elements F3.0 imaging software (Olympus). The TE2000 Eclipse fluorescent microscope with NIS-Elements AR3.2 software (Nikon) was used for fluorescence imaging microscopy. Automated cell counting was performed on the NC-200 NucleoCounter using proprietary lysis and stabilising reagents and cassettes (ChemoMetec).
The viability and distribution of cells was assessed using a LIVE/DEAD Viability/Cytotoxicity Kit *for Mammalian cells* (Live-Dead Kit), (Cat #13224; Molecular Probes). Briefly, a working solution of live/dead solution was made as per manufacturer's instructions by adding 1.25 μl of Calcein AM (solution A) to 2.5 ml of pre-warmed PBS. The solution was thoroughly mixed by vortex and 2.5 μl of Ethidium homodimer (solution B), was added before vortexing a second time to mix. Excess medium was removed and the gels rinsed with 20 μl of warm PBS before a 40 μl of Live/Dead kit working solution was added to each well. The plate was incubated in a 37° C. cell culture incubator for 20 min before viewing using a fluorescent microscope. Green fluorescence was emitted from the cytoplasm of viable cells (excitation/emission ˜495 nm/˜515 nm) while dead cell nuclei fluoresced red (excitation/emission ˜495/˜635 nm) allowing a distinction to be made between viable and dead cells.

[2] = Peptide gelation (tilted tube / inverted vial test, minimum gelation concentration); format: physicochemical; settings: for Minimum gelation concentration (w/v % in PBS): '/' = no gel
Protocol: The peptide gelation occurred by dissolving the TFA salt of the hexapeptide (2 mg) in 100 μL of PBS solution (pH 7.4) or physiological saline solution (0.9% NaCl).
Both peptides 2 and 4 (Table 1) gave a transparent gel in the same conditions (PBS 10 mM at pH 7.4 with a minimum gelation concentration of 24 mM; 2% w/v). To evaluate the mechanical properties of these hydrogels in a more quantitative manner, rheological experiments were performed. The viscoelastic properties of the peptide hydrogels were measured by dynamic rheometry at 37° C. This technique allowed to measure the storage modulus G′ (corresponding to the material's stiffness or rigidity), loss modulus G″ (corresponding to the viscous properties of the material) and loss factor tan (o) (ratio of G″ over G′). According to the Winter-Chambon criterion, a material reaches gelation in rheological terms if the phase angle o gets frequency-independent (F. Chambon et al., 1987 and H. Winter et al., 1987).
The peptide gelation occurred by dissolving the TFA salt of the peptide in 100 μL of PBS solution or physiological saline solution (0.9% NaCl) (pH 7.4).
The peptide gelation occurs by dissolving the TFA salt of the hydrogelator (1 or 2 mg) in 100 μL of aqueous media, PBS solution (pH 7.4) or physiological saline solution (0.9% NaCl). After successive vortexing and sonication, the gel is left to rest overnight at room temperature.
The hydrogelation was realized under physiologically relevant conditions, namely via the addition of phosphate-buffered saline (PBS) or sterile physiological saline solution (0.9% NaCl). The needed amount of hydrogelator was weighed in an Eppendorf® and solubilized by the addition of the above solutions. After vortex and sonication steps, the resulting solution was left at room temperature until gelation occurred. The gelation was qualitatively verified by the inverted vial test (if no gravitational flow was visible the gelation was considered successful). It can be noticed that all peptide hydrogelators depicted formed gels in PBS and saline solution at a concentration of 1 to 2% w/v.

MOR = MOR (Homo sapiens, UniProt P35372); assay: Binding tests (Ki) MOR
Sequence of MOR (P35372 whole entry): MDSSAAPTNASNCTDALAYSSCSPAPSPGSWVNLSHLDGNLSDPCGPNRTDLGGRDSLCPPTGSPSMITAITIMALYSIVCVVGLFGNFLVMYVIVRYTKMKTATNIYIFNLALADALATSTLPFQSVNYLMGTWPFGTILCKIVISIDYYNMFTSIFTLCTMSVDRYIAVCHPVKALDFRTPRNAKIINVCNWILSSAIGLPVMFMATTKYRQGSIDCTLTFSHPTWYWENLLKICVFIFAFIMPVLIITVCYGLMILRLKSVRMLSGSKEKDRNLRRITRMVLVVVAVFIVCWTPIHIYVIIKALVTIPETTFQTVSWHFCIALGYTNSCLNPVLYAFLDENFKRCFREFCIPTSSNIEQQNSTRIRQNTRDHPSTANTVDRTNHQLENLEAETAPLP

KOR = KOR (Homo sapiens, UniProt P41145); assay: Binding tests (Ki) KOR
Sequence of KOR (P41145 whole entry): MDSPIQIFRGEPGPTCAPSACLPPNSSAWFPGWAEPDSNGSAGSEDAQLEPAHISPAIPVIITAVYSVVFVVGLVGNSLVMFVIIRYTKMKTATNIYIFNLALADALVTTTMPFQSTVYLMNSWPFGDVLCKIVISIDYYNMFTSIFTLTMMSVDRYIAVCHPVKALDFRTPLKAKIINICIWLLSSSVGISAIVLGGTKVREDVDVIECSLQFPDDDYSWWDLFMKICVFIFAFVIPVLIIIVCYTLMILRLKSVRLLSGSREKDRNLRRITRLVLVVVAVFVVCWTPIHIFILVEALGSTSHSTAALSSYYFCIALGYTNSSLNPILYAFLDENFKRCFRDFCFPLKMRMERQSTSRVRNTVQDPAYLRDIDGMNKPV

DOR = DOR (Homo sapiens, UniProt P41143); assay: Binding tests (Ki) DOR
Sequence of DOR (P41143 whole entry): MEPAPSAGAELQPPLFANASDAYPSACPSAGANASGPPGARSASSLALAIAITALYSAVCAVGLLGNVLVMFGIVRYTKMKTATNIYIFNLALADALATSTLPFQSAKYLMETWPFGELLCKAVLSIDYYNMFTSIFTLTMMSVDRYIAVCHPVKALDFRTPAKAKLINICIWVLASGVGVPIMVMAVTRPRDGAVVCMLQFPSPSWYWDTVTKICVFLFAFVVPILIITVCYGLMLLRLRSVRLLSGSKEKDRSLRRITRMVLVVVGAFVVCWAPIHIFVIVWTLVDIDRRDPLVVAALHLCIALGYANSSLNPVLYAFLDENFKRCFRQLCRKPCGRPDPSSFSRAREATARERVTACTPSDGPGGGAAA

Male CD1 mice = assay: Radiant heat tail-flick test after s.c. administration, opioids in solution or co-formulated with hydrogelator; format: in vivo, mouse; settings: for Time after administration at which no effect was detected / Time of peak antinociceptive action: s.c. bolus in solution (morphine 5 mg/kg; 14-MM 2.25 μg)
Protocol: Male CD1 mice (6-8 weeks old, body weight average 30 g) were obtained from Charles River (Sulzfeld, Germany). Mice were group-housed in a temperature controlled room with a 12 h light/dark cycle and with free access to food and water. All animal studies were conducted in accordance with ethical guidelines and animal welfare standards according to Austrian regulations for animal research, and were approved by the Committee of Animal Care of the Austrian Federal Ministry of Science and Research.
The radiant heat tail-flick test was used to assess antinociceptive effects of tested drugs after s.c. administration in mice using an UB 37360 Ugo Basile analgesiometer (Ugo Basile s.r.l., Varese, Italy) as described previously (A. Novoa et al., 2012). The reaction time required by the mouse to remove its tail due to the radiant heat was measured and defined as the tail-flick latency. A cut-off time of 10 s was also used in order to minimize tissue damage. The antinociceptive response was expressed as percent of Maximum Possible Effect (% MPE)=[(TL-BL)/(cut-off time-BL)]×100. Data were analyzed with ANOVA using Tukey's multiple comparison test, and graphically processed with the GraphPad Prism Software (GraphPad Software Inc., San Diego, CA).
(§1) Performed as described in Example 5.
as §1
The antinociceptive effect of co-formulations of a peptide hydrogelator as described herein with peptide-based analgesics was investigated in a model of thermal nociception using the tail-flick test in mice. […] The Tail-flick test was performed as described in Example 5.

[3] = Dynamic rheometry of hydrogels (storage modulus G′); format: physicochemical
Protocol: Dynamic rheometry measurements were performed on an AR-G2 rheometer (TA Instruments) equipped with electrically heated plates and a 10 mm-diameter aluminium parallel plate-plate geometry. Viscoelastic properties were measured by oscillatory frequency sweeps at 37° C. in the range between 0.01 and 10 Hz, using a controlled strain of 0.05%. Hydrogel samples were made 12 h in advance. A ring-shaped reservoir filled with a saturated NH4Cl solution was used as a solvent trap.

## Dmt-OLy:s-Phe-Phe-Gln-Phe*-Gln-Phe*-Lys-NH2
Human plasma
  fragment found: heptapeptide, first_seen; also recorded: pentapeptide; also recorded: tripeptide

## FQFQFK-NH2 [peptide 16, H-Phe-Gln-Phe*-Gln-Phe-Lys-NH2]
[1]
  Fibre diameter: ~5 nm
In vitro
  half-life at 9 μM: ~3 min
L929 mouse fibroblasts
  Cytotoxicity in vitro: showed no cytotoxicity in vitro
[2]; PBS or saline solution, Example 9
  Minimum gelation concentration (MGC): 1 % w/v
[2]
  Minimum gelation concentration (w/v % in PBS): 2 w/v %

## H-DPhe-DGlu-DPhe*-DGln-DPhe-DLys-NH2
Human plasma; up to 5700 min
  not cleaved: remained intact after 4 days of incubation

## NCCCC[C@H](NC(=O)[C@H](Cc1ccccc1)NC(=O)[C@H](CCC(N)=O)NC(=O)[C@H](Cc1ccccc1)NC(=O)C[C@H](Cc1ccccc1)NC(=O)[C@H](CCC(=O)O)NC(=O)[C@@H](N)Cc1ccccc1)C(N)=O [peptide 27, H-Phe-Glu-13;;-homo-Phe-Phe-Gln-Phe-Lys-NH2] (H-FE[β3hF]FQFK-NH2)
[1]
  Fibre diameter: ~5 nm
In vitro
  half-life at 9 μM: ~25 min
L929 mouse fibroblasts
  Cytotoxicity in vitro: showed no cytotoxicity in vitro

## Cc1cc(O)cc(C)c1C[C@H](N)C(=O)N1CCC[C@H]1C(=O)N[C@@H](Cc1ccccc1)C(=O)N[C@@H](Cc1ccccc1)C(=O)N[C@@H](CCC(=O)O)C(=O)N[C@@H](Cc1ccccc1)C(=O)N[C@@H](CCC(N)=O)C(=O)N[C@@H](Cc1ccccc1)C(=O)N[C@@H](CCCCN)C(N)=O [CM-54, Dmt-Pro-Phe-Phe-Glu-Phe*-Gln-Phe-Lys-NH2]
MOR
  Ki: 135 nM

## Dmt-DArg-Phe-Phe-Gln-Phe*-Gln-Phe-Lys-NH2
Human plasma
  cleaved bond: Gln-Phe, first_seen, 2.5 min; also recorded: Gln-Phe, 7.5 min
  fragment found: Dmt-DArg-Phe-OH, 60 min

## H-DLys-DPhe-DGln-DPhe*-DGlu-DPhe-NH2
Human plasma; up to 1500 min
  not cleaved: remains intact after 25 h of incubation

## WEWQWK-NH2 [peptide 12, H-Trp-Glu-Trp*-Gln-Trp-Lys-NH2]
[1]
  Fibre diameter: ~5 nm
In vitro
  half-life at 9 μM: ~21 min
L929 mouse fibroblasts
  Cytotoxicity in vitro: showed no cytotoxicity in vitro
[2]
  Minimum gelation concentration (w/v % in PBS): 1 w/v %

## Cc1cc(O)cc(C)c1C[C@H](N)C(=O)N1CCC[C@H]1C(=O)N[C@@H](Cc1ccccc1)C(=O)N[C@@H](Cc1ccccc1)C(=O)N[C@@H](CCC(N)=O)C(=O)N[C@@H](Cc1ccccc1)C(=O)N[C@@H](CCC(N)=O)C(=O)N[C@@H](Cc1ccccc1)C(=O)N[C@@H](CCCCN)C(N)=O [CM-56, Dmt-Pro-Phe-Phe-Gln-Phe*-Gln-Phe-Lys-NH2] (H-[Dmt]PFFQFQFK-NH2; N-terminus assumed)
MOR
  Ki: 65 nM
KOR
  Ki: 337 nM
DOR
  Ki: 176 nM

## Dmt-DLys-Phe-Phe-Glu-Phe*-Gln-Phe-Lys-NH2
Human plasma
  cleaved bond: Gln-Phe, first_seen, 2.5 min; also recorded: Glu-Phe, 7.5 min

## KFQFEF-NH2 [peptide 18, H-Lys-Phe-Gln-Phe*-Glu-Phe-NH2]
[1]
  Fibre diameter: ~5 nm
In vitro
  half-life at 9 μM: ~5 min
L929 mouse fibroblasts
  Cytotoxicity in vitro: showed no cytotoxicity in vitro
[2]
  Minimum gelation concentration (w/v % in PBS): 2 w/v %

## CO[C@@]12CCC(=O)[C@]3(C)Oc4c(O)ccc5c4[C@@]31CCN(C)[C@@H]2C5 [14-MM, 14-methoxymethopon]
Male CD1 mice; s.c. bolus
  Dose required to produce 80% MPE, times lower than morphine: 66 times
Male CD1 mice; s.c. bolus 2.25 μg, 30 min
  Antinociceptive effect at peak of action (% MPE): 80 % of MPE
Male CD1 mice
  Time after administration at which no effect was detected: 4 h
  Time of peak antinociceptive action: 30 min

## CN1CC[C@]23c4c5ccc(O)c4O[C@H]2[C@@H](O)C=C[C@H]3[C@H]1C5 [morphine]
Male CD1 mice
  Time after administration at which no effect was detected: 3 h
  Time of peak antinociceptive action: 30 min
Male CD1 mice; s.c. bolus in solution, 5 mg/kg (0.15 mg per mouse)
  Antinociceptive effect (% MPE): 80 % MPE

## H-Phe(3Br)-Gln-Phe(3Br)-Gln-Phe(3Br)-Lys-NH2 (H-[Phe(3-Br)]Q[Phe(3-Br)]Q[Phe(3-Br)]K-NH2) [peptide 33]
[3]
  Gel strength compared to the non-halogenated peptide: stronger gels
[2]
  Minimum gelation concentration (w/v % in PBS): 1-2 w/v %
